According to US20240148895A1, “ANTIBODY-DRUG CONJUGATE” (Eisai R&D Management Co., Ltd., priority 2022, published 2024):
Like-named read-outs stand apart in the source and are kept apart here.

Legend:
[1] = test system: AsPC-1/Cas9 cell line; assay: AsPC-1/Cas9 growth inhibition assay; assay type: cell-based, human; conditions: AsPC-1/Cas9 cells, 5 days culture, CellTiter Glo 2.0, read-out: Absolute IC50—Day 5 (nM) AsPC-1 Cas9
Method: The human pancreatic cancer cell line AsPC-1 (ATCC Number CRL1682) was infected with Edit-R Lentiviral hCMV-Blast-Cas9 Nuclease Particle (Dharmacon, VCAS10124) in the presence of 8 μg/ml of Hexadimethrine bromide (Sigma, H9268), and after 24 hours it was exposed to 10 μg/ml of Blastcidin S (Thermo, A11139) to remove the uninfected cells, thereby establishing an AsPC-1/Cas9 cell line. The cells were maintenance cultured in a 5% CO2 incubator (37° C.) using RPMI-1640 (FujiFilm-Wako Pure Chemical Industries) containing 10% fetal bovine serum (FBS: SIGMA 173012) and penicillin/streptomycin (FujiFilm-Wako Pure Chemical Industries) (hereunder referred to simply as “culture medium”). After adding 45 μL of AsPC-1/Cas9 cell suspension prepared to 2.0×10^4 cells/mL using culture medium into each well of a 384-well plate (Greiner 781091), the cells were cultured overnight in a 5% CO2 incubator (37° C.). On the following day, 5 μL of the test substance diluted with culture medium was added to each well, and culturing was continued for 5 days in a 5% CO2 incubator (37° C.). Next, 25 μL of CellTiter Glo™ 2.0 (Promega) was added to each well, and the plate contents were mixed for 5 minutes using a plate mixer. The plate was stationed for 10 minutes at room temperature while shielded from light, and then the luminous intensity was measured with an ENVISION™ (Perkin-Elmer). The luminescence value of the wells with addition of test substance was determined as a relative value, with 100% as the luminescence value of the wells with cells but without addition of the test substance, and 0% as the luminescence value of the wells without cells. A plot of test substance concentration against luminescence value % approximated a 4-parameter logistic curve, and the test substance concentration necessary for 50% inhibition of cell growth (Absolute IC50) was calculated, and is shown in Table 4.

[2] = molecular target: HiBiT tagged BRD4-BD1 protein in HEK293/LgBiT/hPGK/HiBiT-BRD4-BD1 cells (Homo sapiens, UniProt O60885); assay: BET BD1 domain degradation assay; assay type: cell-based; design: HiBit-linker-BRD4 BD1(1-209); host or cells: HEK293 (ATCC CRL-1573) stably transduced with LgBiT and HiBiT-BRD4-BD1; conditions: concentration for 50% reduction in HiBiT-BRD4-BD1 protein level, 3 hours, read-out: Absolute DC50—3 h (nM) HEK293_HiBiT-BRD4-BD1
Source text: HEK293/LgBiT/hPGK/HiBiT-BRD4-BD1 cells were established by introducing LgBiT and HiBiT-BRD4-BD1 into the human fetus renal cell line HEK293 (ATCC Number CRL-1573). LgBiT was introduced using lentivirus vector LV[Exp]-Bsd-EFS>{LgBiT}, and HiBiT-BRD4-BD1 was introduced with lentivirus vector LV[Exp]-Puro-hPGK>{HiBit-linker-BRD4 BD1(1-209)}. The vector plasmids LV[Exp]-Bsd-EFS>{LgBiT} and LV[Exp]-Puro-hPGK>{HiBit-linker-BRD4_BD1(1-209)} were constructed by VectorBuilder Co. The lentivirus was produced using a Mission Lentivirus Packaging Mix (Sigma) according to the manufacturer's protocol. Viral infection and drug selection of infected cells were carried out by the following published method (Akagi T. et. al, PNAS 2003; 100:13567-72). The cells were maintenance cultured in a 5% CO2 incubator (37° C.), using culture medium. A 45 μL portion of cell suspension of HEK293/LgBiT/hPGK/HiBiT-BRD4-BD1 cells prepared to 6.7×10^4 cells/mL using culture medium was added to each well of a collagen I-coated 384-well plate (Falcon 356667), and the cells were cultured overnight in a 5% CO2 incubator (37° C.). On the following day, 5 μL of test substance diluted with RPMI-1640 (FujiFilm-Wako Pure Chemical Industries) containing 10% fetal bovine serum (FBS: SIGMA 173012) and penicillin/streptomycin (FujiFilm-Wako Pure Chemical Industries) was added to each well, and culturing was continued for 3 hours in a 5% CO2 incubator (37° C.). The luminous intensity was measured using a Nono-Glo HiBiT Lytic Detection System (Promega), and the intracellular HiBiT tagged BRD4-BD1 protein level was calculated. After culturing, 25 μL of measuring reagent was added to each well and the plate contents were mixed for 5 minutes using a plate mixer. The plate was stationed for 10 minutes at room temperature while shielded from light, and then the luminous intensity was measured with an ENVISION′ (Perkin-Elmer). The luminescence value of the wells with addition of test substance was determined as a relative value, with 100% as the luminescence value of the wells with cells but without addition of the test substance, and 0% as the luminescence value of the wells without cells. A plot of test substance concentration against luminescence value % approximated a 4-parameter logistic curve, and the test substance concentration necessary for 50% reduction in protein level (Absolute DC50) was calculated and is shown in Table 4.

| Structure (SMILES) | IC50 ([1]; Homo sapiens, ASPC1, 120 h) [nM] | DC50 [2] [nM] | IC50 [1] [nM] |
| --- | --- | --- | --- |
| COc1ccc(C(=O)N2C[C@H](C)N(CC3CCN(c4nc([C@@](CN)(OC5CC5)c5ccccc5)c5cc(-c6cn(C)c(=O)c7[nH]ccc67)ccc5n4)CC3)C[C@H]2C)cc1N1CCC(=O)NC1=O [Example 115, 1-(5-((2R,5 S)-4-((1-(4-((R)-2-Amino-1-cyclopropoxy-1-phenylethyl)-6-(6-methyl-7-oxo-6,7-dihydro-1H-pyrrolo[2,3-c]pyridin-4-yl)quinazolin-2-yl)piperidin-4-yl)methyl)-2,5-dimethylpiperazine-1-carbonyl)-2-methoxyphenyl)dihydropyrimidine-2,4-(1H,3H)-dione] | 0.11 | 0.15 |  |
| CNCCN(C)C(=O)OCC(OC1CC1)(c1ccccc1)c1nc(N2CCC(C#Cc3ccc(OC)c(N4CCC(=O)NC4=O)c3)CC2)nc2ccc(-c3cn(C)c(=O)c4[nH]ccc34)cc12 (stereo not shown) [Example 120, 2-Cyclopropoxy-2-(2-(4-((3-(2,4-dioxotetrahydropyrimidine-1(2H)-yl)-methoxyphenyl)ethynyl)piperidin-1-yl)-6-(6-methyl-7-oxo-6,7-dihydro-1H-pyrrolo[2,3-c]pyridin-4-yl)quinazolin-4-yl)-2-phenylethyl methyl(2-(methylamino)ethyl)carbamate] | 0.58 | 2.9 |  |
| COc1ccc(C#CCNC2(C)CCN(C3CCN(c4nc([C@@](CO)(OC5CC5)c5ccccc5)c5cc(-c6cn(C)c(=O)c7[nH]ccc67)ccc5n4)CC3)CC2)cc1N1CCC(=O)NC1=O [Example 101, (S)-1-(5-(3-((1′-(4-(1-Cyclopropoxy-2-hydroxy-1-phenylethyl)-6-(6-methyl-7-oxo-6,7-dihydro-1H-pyrrolo[2,3-c]pyridin-4-yl)quinazolin-2-yl)-4-methyl-[1,4′-bipiperidin]-4-yl)amino)prop-1-yn-1-yl)-2-methoxyphenyl)dihydropyrimidine-2,4(1H,3H)-dione] |  | 0.083 | 0.087 |
| Cc1cc(-c2ccc3nc(N4CCC(CN5CCN(C(=O)COc6cccc7c6C(=O)N(C6CCC(=O)NC6=O)C7=O)CC5)CC4)nc(C(CO)(OC4CC4)c4ccccc4)c3c2)cn(C)c1=O (stereo not shown) [Example 122, 4-(2-(4-((1-(4-(1-Cyclopropoxy-2-hydroxy-1-phenylethyl)-6-(1,5-dimethyl-6-oxo-1,6-dihydropyridin-3-yl)quinazolin-2-yl)piperidin-4-yl)methyl)piperazin-1-yl)-2-oxoethoxy)-2-(2,6-dioxopiperidin-3-yl)isoindoline-1,3-dione] | 4.9 | 0.15 |  |
| Cn1cc(-c2ccc3nc(N4CC(OC5CCN(C(=O)c6cccc(N7CCC(=O)NC7=O)c6)CC5)C4)nc([C@@](CO)(OC4CC4)c4ccccc4)c3c2)c2cc[nH]c2c1=O [Example 103, (S)-1-(3-(4-((1-(4-(1-Cyclopropoxy-2-hydroxy-1-phenylethyl)-6-(6-methyl-7-oxo-6,7-dihydro-1H-pyrrolo[2,3-c]pyridin-4-yl)quinazolin-2-yl)azetidin-3-yl)oxy)piperidine-1-carbonyl)phenyl)dihydropyrimidine-2,4(1H,3H)-dione] | 0.073 | 0.045 |  |
| COc1ccc(C(=O)N2C[C@H](C)N(C3CCN(c4nc([C@@](CN)(OC5CC5)c5ccccc5)c5cc(-c6cn(C)c(=O)c7[nH]ccc67)ccc5n4)CC3)C[C@H]2C)cc1N1CCC(=O)NC1=O [Example 114, 1-(5-((2R,5 S)-4-(1-(4-((R)-2-Amino-1-cyclopropoxy-1-phenylethyl)-6-(6-methyl-7-oxo-6,7-dihydro-1H-pyrrolo[2,3-c]pyridin-4-yl)quinazolin-2-yl)piperidin-4-yl)-2,5-dimethylpiperazine-1-carbonyl)-2-methoxyphenyl)dihydropyrimidine-2,4(1H,3H)-dione] | 0.11 | 0.33 |  |

The remaining lines, values ahead:

| IC50 ([1]; Homo sapiens, ASPC1, 120 h) [nM] | DC50 [2] [nM] | IC50 [1] [nM] | Structure (SMILES) |
| --- | --- | --- | --- |
| 0.084 | 0.05 |  | CCCC(CO)(CCC)c1nc(N2CCC(OC3CCN(C(=O)c4ccc(OC)c(N5CCC(=O)NC5=O)c4)CC3)CC2)nc2ccc(-c3cn(C)c(=O)cc3OC)cc12 [Example 126, 1-(5-(4-((1-(4-(4-(Hydroxymethyl)heptan-4-yl)-6-(4-methoxy-1-methyl-6-oxo-1,6-dihydropyridin-3-yl)quinazolin-2-yl)piperidin-4-yl)oxy)piperidine-1-carbonyl)-2-methoxyphenyl)dihydropyrimidine-2,4(1H,3H)-dione] |
| 0.17 | 0.6 |  | Cc1ccc(C(=O)N2C[C@H](C)N(C3CCN(c4nc(C(CO)(OC5CC5)c5cccc(O)c5)c5cc(-c6cn(C)c(=O)c7[nH]ccc67)ccc5n4)CC3)C[C@H]2C)cc1N1CCC(=O)NC1=O (stereo partly drawn) [Example 127, 1-(5-((2R,5S)-4-(1-(4-(1-Cyclopropoxy-2-hydroxy-1-(3-hydroxyphenyl)ethyl)-6-(6-methyl-7-oxo-6,7-dihydro-1H-pyrrolo[2,3-c]pyridin-4-yl)quinazolin-2-yl)piperidin-4-yl)-2,5-dimethylpiperazine-1-carbonyl)-2-methylphenyl)dihydropyrimidine-2,4-(1H,3H)-dione] |
| 0.13 | 0.11 |  | COc1ccc(C#CCNC2(C)CCN(C3CCN(c4nc(C(CO)(OC5CC5)c5ccccc5)c5cc(-c6cn(C)c(=O)c7[nH]ccc67)ccc5n4)CC3)CC2)cc1N1CCC(=O)NC1=O (stereo not shown) [Example 144, 1-(5-(3-((1′-(4-(1-Cyclopropoxy-2-hydroxy-1-phenylethyl)-6-(6-methyl-7-oxo-6,7-dihydro-1H-pyrrolo[2,3-c]pyridin-4-yl)quinazolin-2-yl)-4-methyl-[1,4′-bipiperidin]-4-yl)amino)prop-1-yn-1-yl)-2-methoxyphenyl)dihydropyrimidine-2,4(1H,3H)-dione] |
| 4.5 | 11 |  | COc1ccc(C#CCNC2(C)CCN(C3CCN(c4nc([C@@](COCNC(=O)[C@H](CC(N)=O)NC(C)=O)(OC5CC5)c5ccccc5)c5cc(-c6cn(C)c(=O)c7[nH]ccc67)ccc5n4)CC3)CC2)cc1N1CCC(=O)NC1=O [Example 131] |
|  | 0.045 | 0.18 | COc1ccc(C#CCNC2(C)CCN(C3CCN(c4nc(C(CO)(OC5CC5)c5ccccc5)c5cc(-c6cn(C)c(=O)c7[nH]ccc67)ccc5n4)CC3)CC2)cc1N1CCC(=O)NC1=O (stereo in doubt) [Example 145, (R)-1-(5-(3-((1′-(4-(1-Cyclopropoxy-2-hydroxy-1-phenylethyl)-6-(6-methyl-7-oxo-6,7-dihydro-1H-pyrrolo[2,3-c]pyridin-4-yl)quinazolin-2-yl)-4-methyl-[1,4′-bipiperidin]-4-yl)amino)prop-1-yn-1-yl)-2-methoxyphenyl)dihydropyrimidine-2,4(1H,3H)-dione] |
